Source: patent US6841538B1, “Combination therapy using nucleic acids and radio therapy” (priority 1998, dated 2005)

What was measured:
tumor cells = conditions: Son and Huang 1994; cited from earlier work
MCA 207 tumor [1] = assay: Tumor growth, combination with pINEX-IL-12 in INEX 324; assay type: in vivo, C57 BL/6 mice; conditions: subtherapeutic vincristine (OncoTCS 0.5 mg/kg i.v.) then INEX 324 pINEX-IL-12 100 μg DNA i.v.
Experimental: C57 BL/6 mice are seeded subcutaneously with MCA 207 tumor cells. Tumor seeding is performed by standard techniques. Mice were seeded subcutaneously on the hip flank with 100,000 MCA-207 fibrosarcoma tumor cells by sub-cutaneous injection on day zero.
On days 7-10, when tumors had developed to useable sizes, mice were injected i.v. via tail vein with approximately 0.5 mg/kg of OncoTCS ([…]).
At 8, 16, 24, 30, 36, 42 or […] after OncoTCS treatment, the mice were injected i.v. via tail vein with INEX 324 (100 μg DNA pINEX-IL-12 with about 500 μg lipid all in about 200 μL total volume). Control mice received HBS.

MCA 207 tumor [2] = assay: Tumor growth, combination with INEX 303 pINEX-TK10 and ganciclovir; assay type: in vivo, C57 BL/6 mice; conditions: OncoTCS 0.5 mg/kg i.v. then INEX 303 pINEX-TK10 i.v. and ganciclovir i.p.
Experimental: C57 BL/6 mice are seeded subcutaneously with MCA 207 tumor cells. Tumor seeding is performed by standard techniques. Mice are seeded subcutaneously on the hip flank with 100,000 MCA-207 fibrosarcoma tumor cells by […] injection on day zero. The tumor cells are cultivated and prepared according to standard techniques using RPMI media with 10% Fetal Bovine Serum (see, for example, Current Protocols in Molecular Biology, Eds. Ausubel, F. M., et al.)
At 8, 16, 24, 30, 36, 42 or […] after OncoTCS treatment, the mice are injected i.v. via tail vein with INEX 303 containing pINEX-TK10 prepared as described herein (100 μg DNA with about 500 μg lipid all in about 200 μL total volume). Control mice receive HBS.
1 mg ganciclovir, which is in 200 μL PBS (approximately 50 mg/kg; commercially available from Hoffman La Roche) is administered by intraperitoneal injection 12 h and 24 h after SPLP administration.

SK-OV-3 cells [3] = assay: Uptake of YOYO-1 labeled plasmid lipoplexes by flow cytometry; assay type: cell-based, human; conditions: aphidicolin 5 μg/mL 16 hr; vs control cells
Experimental: (§1) SK-OV-3 or HeLa-luc cells were seeded at a density of 30,000 cells per well in a 24 well plate in growth media 24 hours prior to treatment with aphidicolin. Aphidicolin (Sigma) was reconstituted in phosphate buffered saline containing 0.5% DMSO. Cells were incubated with aphidicolin at a final concentration of 5 μg/mL in 1 mL of media per well for 16 hours prior to transfection. Transfection was accomplished by the addition of 0.5 μg of formulated DNA to each well.
For the plasmid DNA uptake experiments, the method previously described (Zabner, et al., J. Biol. Chem., 270:18997-19007 (1995); Tseng, et al., Biotechnol. Bioeng., 50:548-554 (1996)) using fluorescently labeled DNA and flow cytometry was used with the following modifications. Plasmid DNA was fluorescently labeled by incubation with YOYO-1 iodide (Molecular Probes, Eugene, Oreg.) at a dye:basepair ratio of […] for 10 minutes at 4° C. The sample was then dialyzed twice against autoclaved deionized water.
Lipoplexes were prepared using YOYO-1 labeled DNA and incubated with cells. […] Fluorescence was measured in the FL1 channel (λemission=530+/−15 nm) of a FACSort flow cytometer (Becton-Dickinson, San Jose, Calif.) equipped with an Ar- ion laser (λexcitation=488 nm). Data was collected from 10,000 cells and analyzed for fluorescence using CellQuest software.

SK-OV-3 cells [4] = assay: Lipid mediated transfection (lipoplexes or SPLPs), luciferase activity; assay type: cell-based, human; conditions: for increase in luciferase expression, (+/−) vs (−/−) culture: peak; for difference in luciferase activity between (−/−) and (+/+) cultures: 26 hrs
Experimental: Lipoplexes were prepared as follows: All reagents were sterile and cooled to 4° C. prior to complex preparation. A solution containing 62 μM dioleoyldimethylammonium chloride: 1,2-sn-dioleoylphosphatidylethanolamine (DODAC:DOPE) large unilamellar vesicles (LUVs) and a solution containing 10 μg/mL plasmid DNA were prepared in distilled water. The DNA was added to an equal volume of lipid dropwise, while vortexing. The solution was incubated on ice for 30 minutes prior to transfection. The resulting lipoplexes contained a final DNA concentration of 0.5 μg/100 μL and the cationic lipid:DNA (+:−) charge ratio was 1:1.
Plasmid containing a therapeutic gene was encapsulated as SPLP using the detergent dialysis method of INEX 351. The SPLP contained 42.5:42.5:15 mol % of DOPE:DODAC:1-O-[2′-(w-methoxypolyethyleneglycol) succinoyl]-2-N-octoylsphingosine, (PEG-CerC8), at a lipid:DNA ratio of 15:1 (w/w). SPLPs were separated from empty liposomes by centrifugation through a discontinuous sucrose gradient.
as §1
Luciferase assays were performed using the Luciferase Assay System kit (Promega, Madison, Wis.) according to the manufacturer's protocol. Cell samples were washed twice with PBS, lysed by incubation with 200 μL of lysis buffer (0.1% triton in 250 mM NaH2PO4, pH 7.4) for 20 min. 20 μL of cell lysate was assayed (in duplicate) using a mL3000 microtiter plate luminometer (Dynex Technologies). A standard curve was determined by assaying 20 μL of serial dilutions of a 1 mg/mL luciferase standard (Boehringer Mannheim). Cell lysate was assayed for protein content using the bicinchoninic acid (BCA) colorimetric method. Briefly, in a 96 well plate, 95 μL of water and 100 μL of the Micro BCA protein assay working reagent (Pierce) were added to 5 μL of cell lysate. The plates were shaken on a rotary platform at 100 rpm for 10 minutes before being incubated at 37° C. for 2 hours. Absorbance was monitored at 570 nm (Dynatech MR5000 plate reader) and protein content calculated using a standard curve of varying concentrations of BSA.

HeLa-luc cells = assay: Luciferase gene expression in stably transfected HeLa-luc cells; assay type: cell-based, human; conditions: HeLa-luc, 0, 6 and 24 hours after arrest vs untreated control cells
Experimental: SK-OV-3 cells human ovarian tumor cells, ATCC) were cultured in RPMI 1640 media (StemCell Technologies, Vancouver, B.C.) supplemented with 10% fetal bovine serum (Intergen). HeLa-luc cells were stably transfected with a luciferase reporter plasmid and cultured in Dulbecco's modified Eagle medium (StemCell Technologies, Vancouver, B.C.) supplemented with 10% fetal bovine serum and 400 μg/mL Geneticin (Gibco BRL).
as §1
(§2) Luciferase assays were performed using the Luciferase Assay System kit (Promega, Madison, Wis.) according to the manufacturer's protocol. […] A standard curve was determined by assaying 20 μL of serial dilutions of a 1 mg/mL luciferase standard (Boehringer Mannheim). […] Absorbance was monitored at 570 nm (Dynatech MR5000 plate reader) and protein content calculated using a standard curve of varying concentrations of BSA.

SK-OV-3 cells [5] = assay: Semliki Forest Virus (SFV-luc) mediated luciferase gene expression; assay type: cell-based, human; conditions: SFV-luc m.o.i. 0.5
Experimental: as §1
Luciferase cDNA was cloned into the multiple cloning site of pSFV 1-3. Recombinant virus encoding luciferase was prepared according to the protocol described by Liljestrom and Garoff (Maniatis, et al., Molecular Cloning, Cold Spring Harbor, N.Y., 1981, pp. 93-94). Prior to infection of SK-OV-3 cells, virus particles were activated in 0.5 mg/mL chymotrypsin for 30 minutes at room temperature. Chymotrypsin was inactivated by the addition of aprotinin to a final concentration of 0.67 mg/mL. […]
as §2

SK-OV-3 cells [6] = assay: Cell cycle status by propidium iodide flow cytometry; assay type: cell-based, human
Experimental: as §1
The cell cycle status of cultures was determined by flow cytometry of permeabilized cells that were stained with propidium iodide. Prior to harvesting, media was aspirated and the cells were washed twice with 2 mL phosphate buffered saline (PBS). After washing, 2-3 drops of pre-warmed trypsin-EDTA (0.25% trypsin, 1 mM EDTA; Gibco BRL) was added to each well and the plate was incubated at 37° C. until the cells had detached from the plate. Trypsin was inactivated by the addition of 1.5 mL of cold media; The samples were transferred to 6 mL polystyrene tubes (Becton-Dickenson, San Jose, Calif., USA) and centrifuged at 2000 rpm for 5 min (Beckman GS-6R, rotor GH3.8). Cells were fixed and permeabilized by incubation for 10 min in 70% methanol (pre-chilled to −70° C.). Samples were then centrifuged at 2000 rpm for 5 min and the cells were incubated in 0.5 mL of 150 μg/mL propidium iodide (Molecular Probes, Eugene, Oreg.) in PBS for 30 minutes on ice in the dark prior to analysis by flow cytometry. 5,000 cells were analyzed in the FL2 channel (λemission=585+/−21 nm) of a FACSort flow cytometer (Becton-Dickinson, San Jose, Calif.) equipped with an Ar- ion laser (λexcitation=488 nm)

[7] = (+/−) cultures, 1 hr exposure, either formulation

Compound	expression of plasmid delivered directly to tumor cells after drug treatment (tumor cells)	tumor growth (MCA 207 tumor [1])	tumor growth vs HSV-TK/ganciclovir system alone (MCA 207 tumor [2])	effect of cell cycle arrest on internalization of lipoplexes (SK-OV-3 cells [3])	time after removal of aphidicolin at which luciferase expression begins to increase (SK-OV-3 cells [4]; [7])	time after removal of aphidicolin of maximum luciferase expression (SK-OV-3 cells [4]; [7]) [h]	increase in luciferase expression, (+/−) vs (−/−) culture (SK-OV-3 cells [4]; SPLPs, 1 hr exposure) [fold]	difference in luciferase activity between (−/−) and (+/+) cultures (SK-OV-3 cells [4]; SPLPs) [fold]	increase in luciferase expression, (+/−) vs (−/−) culture (SK-OV-3 cells [4]; lipoplexes, 1 hr exposure) [fold]	decrease in luciferase gene expression, (+/+) culture (SK-OV-3 cells [4]; lipoplexes, 24 hrs continuous exposure, continued aphidicolin) [fold]	luciferase expression of (+/−) cultures vs (−/−) control (SK-OV-3 cells [4]; lipoplexes, 24 hrs, aphidicolin removed)	difference in luciferase activity between (−/−) and (+/+) cultures (SK-OV-3 cells [4]; lipoplexes)	effect on level of luciferase gene expression (HeLa-luc cells)	pattern of SFV-luc gene expression between (−/−), (+/−) and (+/+) cultures (SK-OV-3 cells [5])	cells in the G2/M phase, (+/−) culture (SK-OV-3 cells [6]; 16 hrs after removal of aphidicolin block)	cells progressed into the G1 phase after mitotic division, (+/−) culture (SK-OV-3 cells [6]; 22 hrs after removal of aphidicolin block) [%]	cells remaining arrested in the G1 phase, (+/+) culture (SK-OV-3 cells [6]; end of the 24 incubation with lipoplexes, continued aphidicolin)	cells remaining arrested in the G1 phase, (+/+) cultures (SK-OV-3 cells [6]; throughout kinetics experiments (to 26 hrs) with lipoplexes or SPLPs) [%]
N.N.[Cl][Pt][Cl] [Cisplatin]	improved expression																	
CC[C@]1(O)C[C@H]2CN(CCc3c([nH]c4ccccc34)[C@@](C(=O)OC)(c3cc4c(cc3OC)N(C=O)[C@H]3[C@@](O)(C(=O)OC)[C@H](OC(C)=O)[C@]5(CC)C=CCN6CC[C@]43[C@@H]65)C2)C1 [Vincristine]	not found to be effective	Tumor growth is inhibited and regression in tumor size is visible	inhibits growth of tumors and promotes tumor regression to a significantly greater degree															
C[C@@]1(CO)[C@H](O)CC[C@@]2(C)[C@H]1CC[C@H]1C[C@@H]3C[C@@]12CC[C@]3(O)CO [aphidicolin]				does not affect the internalization of lipoplexes	approximately 10 hours	12	8	20	3	20	did not differ significantly	approximately 40 fold	did not significantly affect	no significant difference	approximately 85%	~45	approximately 95%	95
